Source: ChEMBL document CHEMBL1201862, “PubChem BioAssay data set” (2004)
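Cells were grown in 96-well plates and exposed to each compound for 48 hours at five concentrations; endpoints were interpolated linearly between bracketing concentrations, or set to the highest concentration if not reached. At the GI50, growth is halved.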 The source made the active and inactive calls. No stated cut-off is given here; in the data, active = GI50 up to about 1.1 µM and inactive = higher.

Tests used:
Assay in all cases: growth of human tumour cells (NCI), 48 h
786-0 = test system: 786-0
A498 = test system: A498
A549 = test system: A549
ACHN = test system: ACHN
BT-549 = test system: BT-549
CAKI-1 = test system: CAKI-1
CCRF-CEM = test system: CCRF-CEM
COLO 205 = test system: COLO 205
DU-145 = test system: DU-145
EKVX = test system: EKVX
HCC 2998 = test system: HCC 2998
HCT-116 = test system: HCT-116
HCT-15 = test system: HCT-15
HOP-62 = test system: HOP-62
HOP-92 = test system: HOP-92
HT-29 = test system: HT-29
Hs-578T = test system: Hs-578T
IGROV-1 = test system: IGROV-1
K562 = test system: K562
KM12 = test system: KM12
LOX IMVI = test system: LOX IMVI
M14 = test system: M14
MCF7 = test system: MCF7
MDA-MB-231 = test system: MDA-MB-231
MDA-MB-435 = test system: MDA-MB-435
MDA-N = test system: MDA-N
MOLT-4 = test system: MOLT-4
Malme-3M = test system: Malme-3M
NCI-H226 = test system: NCI-H226
NCI-H23 = test system: NCI-H23
NCI-H460 = test system: NCI-H460
NCI-H522 = test system: NCI-H522
NCI/ADR-RES = test system: NCI/ADR-RES
OVCAR-3 = test system: OVCAR-3
OVCAR-4 = test system: OVCAR-4
OVCAR-5 = test system: OVCAR-5
OVCAR-8 = test system: OVCAR-8
PC-3 = test system: PC-3
RPMI-8226 = test system: RPMI-8226
RXF 393 = test system: RXF 393
SF-268 = test system: SF-268
SF-295 = test system: SF-295
SK-MEL-28 = test system: SK-MEL-28
SK-MEL-2 = test system: SK-MEL-2
SK-MEL-5 = test system: SK-MEL-5
SK-OV-3 = test system: SK-OV-3
SN12C = test system: SN12C
SNB-19 = test system: SNB-19
SNB-75 = test system: SNB-75
SW-620 = test system: SW-620
T47D = test system: T47D
TK-10 = test system: TK-10
U-251 = test system: U-251
UACC-257 = test system: UACC-257
UACC-62 = test system: UACC-62
UO-31 = test system: UO-31
HL-60 = test system: HL-60
SF-539 = test system: SF-539

CC(Cc1ccccc1)Nc1ncnc2c1ncn2C1OC(CO)CC1O (stereo not drawn)
GI50 (786-0): > 100 µM (inactive) | GI50 (A498): > 100 µM (inactive) | GI50 (A549): > 100 µM (inactive) | GI50 (ACHN): > 100 µM (inactive) | GI50 (BT-549): > 100 µM (inactive) | GI50 (CAKI-1): > 100 µM (inactive) | GI50 (CCRF-CEM): > 100 µM (inactive) | GI50 (COLO 205): > 100 µM (inactive) | GI50 (DU-145): > 100 µM (inactive) | GI50 (EKVX): > 100 µM (inactive) | GI50 (HCC 2998): > 100 µM (inactive) | GI50 (HCT-116): > 100 µM (inactive) | GI50 (HCT-15): > 100 µM | GI50 (HOP-62): > 100 µM (inactive) | GI50 (HOP-92): > 100 µM (inactive) | GI50 (HT-29): > 100 µM (inactive) | GI50 (Hs-578T): 58.7 µM (inactive) | GI50 (IGROV-1): > 100 µM (inactive) | GI50 (K562): > 100 µM (inactive) | GI50 (KM12): > 100 µM (inactive) | GI50 (LOX IMVI): > 100 µM (inactive) | GI50 (M14): > 100 µM (inactive) | GI50 (MCF7): 0.611 µM (active) | GI50 (MDA-MB-231): > 100 µM (inactive) | GI50 (MDA-MB-435): > 100 µM (inactive) | GI50 (MDA-N): > 100 µM (inactive) | GI50 (MOLT-4): > 100 µM (inactive) | GI50 (Malme-3M): > 100 µM (inactive) | GI50 (NCI-H226): > 100 µM (inactive) | GI50 (NCI-H23): > 100 µM (inactive) | GI50 (NCI-H460): > 100 µM (inactive) | GI50 (NCI-H522): > 100 µM (inactive) | GI50 (NCI/ADR-RES): > 100 µM (inactive) | GI50 (OVCAR-3): > 100 µM (inactive) | GI50 (OVCAR-4): > 100 µM (inactive) | GI50 (OVCAR-5): > 100 µM (inactive) | GI50 (OVCAR-8): > 100 µM (inactive) | GI50 (PC-3): > 100 µM (inactive) | GI50 (RPMI-8226): > 100 µM (inactive) | GI50 (RXF 393): > 100 µM (inactive) | GI50 (SF-268): > 100 µM (inactive) | GI50 (SF-295): 1.93 µM (inactive) | GI50 (SK-MEL-28): > 100 µM (inactive) | GI50 (SK-MEL-2): > 100 µM (inactive) | GI50 (SK-MEL-5): > 100 µM (inactive) | GI50 (SK-OV-3): 3.71 µM (inactive) | GI50 (SN12C): > 100 µM (inactive) | GI50 (SNB-19): > 100 µM (inactive) | GI50 (SNB-75): > 100 µM (inactive) | GI50 (SW-620): > 100 µM (inactive) | GI50 (T47D): > 100 µM (inactive) | GI50 (TK-10): > 100 µM (inactive) | GI50 (U-251): > 100 µM (inactive) | GI50 (UACC-257): > 100 µM (inactive) | GI50 (UACC-62): > 100 µM (inactive) | GI50 (UO-31): > 100 µM (inactive)

COc1cc(O)c2c(=O)c(OC)c(-c3ccc4c(c3)OCO4)oc2c1OC
GI50 (786-0): 38.9 µM (inactive) | GI50 (A498): > 50 µM (inactive) | GI50 (A549): > 50 µM (inactive) | GI50 (ACHN): > 50 µM (inactive) | GI50 (BT-549): 13.4 µM (inactive) | GI50 (CAKI-1): > 50 µM (inactive) | GI50 (CCRF-CEM): > 50 µM (inactive) | GI50 (COLO 205): > 50 µM (inactive) | GI50 (DU-145): > 50 µM (inactive) | GI50 (EKVX): 39 µM (inactive) | GI50 (HCC 2998): > 50 µM (inactive) | GI50 (HCT-116): 49.7 µM (inactive) | GI50 (HCT-15): > 50 µM | GI50 (HL-60): > 50 µM (inactive) | GI50 (HOP-62): 21.8 µM (inactive) | GI50 (HOP-92): 7.6 µM (inactive) | GI50 (HT-29): > 50 µM (inactive) | GI50 (Hs-578T): 28.1 µM (inactive) | GI50 (IGROV-1): > 50 µM (inactive) | GI50 (K562): > 50 µM (inactive) | GI50 (KM12): > 50 µM (inactive) | GI50 (LOX IMVI): > 50 µM (inactive) | GI50 (M14): > 50 µM (inactive) | GI50 (MCF7): > 50 µM (inactive) | GI50 (MDA-MB-231): 32 µM (inactive) | GI50 (MDA-MB-435): > 50 µM (inactive) | GI50 (MDA-N): > 50 µM (inactive) | GI50 (MOLT-4): > 50 µM (inactive) | GI50 (Malme-3M): > 50 µM (inactive) | GI50 (NCI-H226): > 50 µM (inactive) | GI50 (NCI-H23): > 50 µM (inactive) | GI50 (NCI-H460): > 50 µM (inactive) | GI50 (NCI-H522): > 50 µM (inactive) | GI50 (NCI/ADR-RES): > 50 µM (inactive) | GI50 (OVCAR-3): > 50 µM (inactive) | GI50 (OVCAR-4): > 50 µM (inactive) | GI50 (OVCAR-5): > 50 µM (inactive) | GI50 (OVCAR-8): 19.1 µM (inactive) | GI50 (PC-3): > 50 µM (inactive) | GI50 (RXF 393): 18.9 µM (inactive) | GI50 (SF-268): 21.7 µM (inactive) | GI50 (SF-295): 29 µM (inactive) | GI50 (SF-539): 18.5 µM (inactive) | GI50 (SK-MEL-28): > 50 µM (inactive) | GI50 (SK-MEL-2): > 50 µM (inactive) | GI50 (SK-MEL-5): 22.5 µM (inactive) | GI50 (SK-OV-3): 21.7 µM (inactive) | GI50 (SN12C): > 50 µM (inactive) | GI50 (SNB-19): 25.9 µM (inactive) | GI50 (SNB-75): 11.6 µM (inactive) | GI50 (SW-620): > 50 µM (inactive) | GI50 (T47D): > 50 µM (inactive) | GI50 (TK-10): > 50 µM (inactive) | GI50 (U-251): 12.9 µM (inactive) | GI50 (UACC-257): > 50 µM (inactive) | GI50 (UACC-62): > 50 µM (inactive) | GI50 (UO-31): > 50 µM (inactive)

O=C1Cc2c([nH]c3ccc(Br)cc23)-c2cc(O)c(O)cc2N1
GI50 (786-0): > 100 µM (inactive) | GI50 (A498): > 100 µM (inactive) | GI50 (A549): > 100 µM (inactive) | GI50 (ACHN): > 100 µM (inactive) | GI50 (BT-549): > 100 µM (inactive) | GI50 (CAKI-1): > 100 µM (inactive) | GI50 (COLO 205): > 100 µM (inactive) | GI50 (DU-145): > 100 µM (inactive) | GI50 (EKVX): > 100 µM (inactive) | GI50 (HCC 2998): > 100 µM (inactive) | GI50 (HCT-15): > 100 µM | GI50 (HOP-62): > 100 µM (inactive) | GI50 (HOP-92): > 100 µM (inactive) | GI50 (Hs-578T): > 100 µM (inactive) | GI50 (K562): > 100 µM (inactive) | GI50 (KM12): > 100 µM (inactive) | GI50 (LOX IMVI): > 100 µM (inactive) | GI50 (M14): > 100 µM (inactive) | GI50 (MCF7): > 100 µM (inactive) | GI50 (MDA-MB-231): > 100 µM (inactive) | GI50 (MDA-MB-435): > 100 µM (inactive) | GI50 (MDA-N): > 100 µM (inactive) | GI50 (MOLT-4): 71.8 µM (inactive) | GI50 (NCI-H226): > 100 µM (inactive) | GI50 (NCI-H23): > 100 µM (inactive) | GI50 (NCI-H460): > 100 µM (inactive) | GI50 (NCI-H522): > 100 µM (inactive) | GI50 (NCI/ADR-RES): > 100 µM (inactive) | GI50 (OVCAR-3): > 100 µM (inactive) | GI50 (OVCAR-4): > 100 µM (inactive) | GI50 (OVCAR-5): > 100 µM (inactive) | GI50 (OVCAR-8): > 100 µM (inactive) | GI50 (PC-3): > 100 µM (inactive) | GI50 (RPMI-8226): > 100 µM (inactive) | GI50 (RXF 393): > 100 µM (inactive) | GI50 (SF-268): > 100 µM (inactive) | GI50 (SF-295): > 100 µM (inactive) | GI50 (SK-MEL-28): > 100 µM (inactive) | GI50 (SK-MEL-2): > 100 µM (inactive) | GI50 (SK-OV-3): > 100 µM (inactive) | GI50 (SN12C): > 100 µM (inactive) | GI50 (SNB-19): > 100 µM (inactive) | GI50 (SNB-75): > 100 µM (inactive) | GI50 (SW-620): > 100 µM (inactive) | GI50 (T47D): > 100 µM (inactive) | GI50 (TK-10): > 100 µM (inactive) | GI50 (U-251): > 100 µM (inactive) | GI50 (UACC-257): > 100 µM (inactive) | GI50 (UACC-62): > 100 µM (inactive) | GI50 (UO-31): > 100 µM (inactive)
